Literature values, collected in patent US20150018320A1, “Hormone Containing Emulsion Comprising Krill Phospholipids” (B. Braun Melsungen AG, priority 2012, published 2015).

Tested on: TBI patients
Conditions: two clinical trials

CC(=O)[C@H]1CC[C@H]2[C@@H]3CCC4=CC(=O)CC[C@]4(C)[C@H]3CC[C@]12C [progesterone, pregn-4-ene-3,20-dione]
mortality: decreased mortality
safety and tolerability: safe and well tolerated
